Common to all, as to assay type: cell-based
Series [1] relates to SUDHL5 cells. Briefly: Induction of caspase-3/7 activity in SUDHL5 cells (Assay 4). Here is the method: (§1) Induction of Caspase-3/7 Activity Upon Treatment of Cells with Selected Compounds
(§2) The BH3-domain of MCL-1 sequesters pro-apoptotic proteins, thereby inhibiting apoptosis. In contrast, MCL-1 inhibitors are expected to antagonize this effect leading to an increase in apoptosis, which can be determined by measuring the activity of caspase-3/7.
(§3) The activity of caspase-3/7 was determined in DLBCL (Diffuse large B-cell lymphoma) cell lines (SUDHL5 and SUDHL10) upon treatment with different compounds, using the Caspase-Glo® 3/7 reagent from Promega (G8092).
(§4) As a control, medium without cells was also added to the plate. Cells were incubated in a humidified incubator at 37° C. overnight.
(§5) Rim wells were excluded. The cells were incubated for 3 h hours in a humidified incubator at 37° C. After this incubation, 30 μL of Caspase-Glo® 3/7 reagent (Promega G8092) was added to each well using the Multidrop Combi Reagent Dispenser, followed by 1 h incubation at 37° C. Finally, luminescence was read at 0.1 ms, with a gain of 3000 using the PHERAstar FS microplate reader (BMG Labtech).
(§6) For the evaluation of the results, the background measured with “medium-only” was subtracted from all other values. Then, the values were normalized to DMSO-only treated cells (every value was divided by the mean of the DMSO control).

The test system of a further series is SUDHL10 cells. The experiment in a line: Induction of caspase-3/7 activity in SUDHL10 cells (Assay 4). Here is the method:
as §1, §2, §3, §4, §5, §6

In series [2] the test system is SUDHL5 cells. The experiment in a line: Induction of cytotoxicity in SUDHL5 cells (Assay 6). The settings on record: 5 h, CellTiter-Glo; read-out: Cytotox SUDHL5 IC50 (median). Here is the method: Assay 6 Induction of Cytotoxicity Upon Treatment of Cells with Selected Compounds
In principle, compounds that induce apoptosis will concomitantly induce cell cytotoxicity. Therefore, cytotoxicity assays were run in parallel in SUDHL5 and SUDHL10 cells.
As a control, medium without cells was also added to the plate. Cells were incubated in a humidified incubator at 37° C. overnight. […] Rim wells were excluded. The cells were incubated for 5 h hours in a humidified incubator at 37° C. After this incubation, 30 μL of CellTiter-Glo® Luminescent Cell Viability reagent (Promega, G7573) was added to each well using the Multidrop Combi Reagent Dispenser, followed by 15 min incubation on a shaker at room temperature. Finally, luminescence was read at 0.1 ms, with a gain of 3000 using the PHERAstar FS microplate reader (BMG Labtech).
Background: ATP-based viability assays read luminescence as a measure of living cells.

For series [3], the system named is SUDHL5 cells. Briefly: Antiproliferation assay SUDHL5 (Assay 7). The settings on record: 72 h, CellTiter-Glo; read-out: Antiproli SUDHL5 IC50 (median). Here is the method:
(§7) Assessment of the Anti-Proliferative Effect of Compounds in Different Cell Lines
(§8) The impact of compounds on the proliferation of different cell lines was assessed using the CellTiter-Glo® Luminescent Cell Viability reagent from Promega (G7573).
(§9) In parallel, cells were plated in a reference (day 0) plate for time zero determination. Cells were incubated in a humidified incubator at 37° C. overnight.
(§10) Rim wells were excluded. The cells were incubated for 72 h hours in a humidified incubator at 37° C. The day 0 plate was measured by adding 30 μL/well of CTG solution (CellTiter-Glo® Luminescent Cell Viability reagent, Promega G7573) to time zero wells in the reference plate followed by a 10 minutes incubation and luminescence reading at 0.1 ms. using the PHERAstar FS microplate reader (BMG Labtech).
(§11) After 72 h incubation, the treated plates were measured in the same way as the day 0 plate mentioned above. The Bella DRC Master Sheet was used to calculate IC50s, with CI=day 0 values and C0=DMSO control values.

The subject of the next series is AMO-1 cells. Briefly: Antiproliferation assay AMO-1 (Assay 7). Here is the method:
as §7, §8, §9, §10, §11

The next series relates to HMC-1-8 cells. Briefly: Antiproliferation assay HMC-1-8 (Assay 7). Here is the method: as §7, §8, §9, §10, §11
[4] abbreviates: caspase-3/7 induction, 3 h; read-out: Caspase SUDHL5 EC50 (median).
Where [5] appears, read: caspase-3/7 induction, 3 h; read-out: Caspase SUDHL10 EC50 (median).
Where [6] appears, read: 72 h, CellTiter-Glo; read-out: Antiproli AMO-1 IC50 median.
[7] abbreviates: 72 h, CellTiter-Glo; read-out: Antiproli HMC-1-8 IC50 median.

Consider 10 molecules from patent US11440923B2, “Substituted macrocyclic indole derivatives” (Bayer Aktiengesellschaft, priority 2017, dated 2022).

Where a name gives a salt, the structure may show the parent alone. Read-outs that look alike come from different tables or passages of the source.

With `CCc1c2c(nn1C)C(CCN1CCOCC1)N(C)CCCCn1c(C(=O)O)c(CCCOc3cccc4cc(F)ccc34)c3ccc(Cl)c-2c31` (racemic) [Example 93, (rac)-4-chloro-3-ethyl-7-{3-[(6-fluoro-1-naphthyl)oxy]propyl}-2,14-dimethyl-(15-rac)-[2-(morpholin-4-yl)ethyl]-10,11,12,13,14,15-hexahydro-2H-pyrazolo[3′,4′:8,9][1,6]diazacycloundecino[10,11,1-hi]indole-8-carboxylic Acid], the EC50 is 20 nM with SUDHL5 cells [1] (setting [4]) and 23 nM with SUDHL10 cells (setting [5]). Moreover, the IC50 with SUDHL5 cells [2] is 27 nM; with SUDHL5 cells [3], 20 nM; in the series with AMO-1 cells (setting [6]), 58.9 nM; in the series with HMC-1-8 cells (setting [7]), 558 nM.
In the case of `CCc1c2c(nn1C)C(CCN1CCOCC1)N(C)CCCCn1c(C(=O)O)c(CCCOc3cccc4cc(F)ccc34)c3ccc(Cl)c-2c31` (racemic) [Example 96, (rac)-4-chloro-3-ethyl-7-{3-[(6-fluoro-1-naphthyl)oxy]propyl}-2,14-dimethyl-15-(rac)-[2-(morpholin-4-yl)ethyl]-10,11,12,13,14,15-hexahydro-2H-pyrazolo[3′,4′:8,9][1,6]diazacycloundecino[10,11,1-hi]indole-8-carboxylic Acid], the concentration giving a half-maximal response (EC50) with SUDHL5 cells [1] (setting [4]) was determined as 19 nM; in the series on SUDHL10 cells (setting [5]) it was 28 nM. Further, the 50% inhibitory concentration (IC50) turned out to be 25 nM with SUDHL5 cells [2], 30 nM with SUDHL5 cells [3] and 726 nM in the series with HMC-1-8 cells (setting [7]).
`CCc1c2c(nn1C)C(CCN1CCOCC1)N(C)CCCCn1c(C(=O)O)c(CCCOc3cccc4ccccc34)c3ccc(Cl)c-2c31` (racemic) [Example 99, (rac)-4-chloro-3-ethyl-2,14-dimethyl-(15-rac)-[2-(morpholin-4-yl)ethyl]-7-{3-[(naphthalen-1-yl)oxy]propyl}-10,11,12,13,14,15-hexahydro-2H-pyrazolo[3′,4′:8,9][1,6]diazacycloundecino[10,11,1-hi]indole-8-carboxylic]: the EC50 with SUDHL5 cells [1] (setting [4]) turned out to be 76 nM; in the series with SUDHL10 cells (setting [5]) it was 59 nM. Also, the IC50 with SUDHL5 cells [2] was 100 nM; in the series with SUDHL5 cells [3], 71 nM; with AMO-1 cells (setting [6]), 86.3 nM; in the series with HMC-1-8 cells (72 h, CellTiter-Glo, read-out: Antiproli HMC-1-8 IC50 median), 1860 nM.
On to `CCc1c2c(nn1C)C(CCN1CCOCC1)N(C)CCCCn1c(C(=O)O)c(CCCOc3cccc4cc(F)ccc34)c3ccc(Cl)c-2c31` (single isomer, unassigned) [Example 95, 4-chloro-3-ethyl-7-{3-[(6-fluoronaphthalen-1-yl)oxy]propyl}-2,14-dimethyl-15-[2-(morpholin-4-yl)ethyl]-10,11,12,13,14,15-hexahydro-2H-pyrazolo[3′,4′:8,9][1,6]diazacycloundecino[10,11,1-hi]indole-8-carboxylic Acid], for which the results for the EC50 with SUDHL5 cells [1] (setting [4]) and in the series on SUDHL10 cells (setting [5]) were 1500 nM and 3500 nM, respectively. For the same molecule, the IC50 in the series with SUDHL5 cells [2] is 2200 nM; in the series on SUDHL5 cells [3], 2300 nM; with AMO-1 cells (setting [6]), 4300 nM; in the series on HMC-1-8 cells (setting [7]) it was 8220 nM.
Turning to `CCc1c2c(nn1C)C(CCN1CCOCC1)OCC(F)(F)CCn1c(C(=O)O)c(CCCOc3cccc4cc(F)ccc34)c3ccc(Cl)c-2c31` (single isomer, unassigned; (+)) [Example 87, (+)-4-chloro-3-ethyl-12,12-difluoro-7-{3-[(6-fluoronaphthalen-1-yl)oxy]propyl}-2-methyl-15-[2-(morpholin-4-yl)ethyl]-2,10,11,12,13,15-hexahydropyrazolo[4′,3′:9,10][1,6]oxazacycloundecino[8,7,6-hi]indole-8-carboxylic Acid], the results for the EC50 in the series with SUDHL5 cells [1] (setting [4]) and with SUDHL10 cells (setting [5]) were 58 nM and 84 nM, respectively. For the same molecule, the IC50 is 61 nM with SUDHL5 cells [2], 68 nM in the series with SUDHL5 cells [3], 63.9 nM in the series on AMO-1 cells (setting [6]) and 1500 nM with HMC-1-8 cells (setting [7]).
On to `CCc1c2c(nn1C)C(CCN1CCOCC1)OCC(F)(F)CCn1c(C(=O)O)c(CCCOc3cccc4cc(F)ccc34)c3ccc(Cl)c-2c31` (single isomer, unassigned; (-)) [Example 88, (−)-4-chloro-3-ethyl-12,12-difluoro-7-{3-[(6-fluoronaphthalen-1-yl)oxy]propyl}-2-methyl-15-[2-(morpholin-4-yl)ethyl]-2,10,11,12,13,15-hexahydropyrazolo[4′,3′:9,10][1,6]oxazacycloundecino[8,7,6-hi]indole-8-carboxylic Acid], for which the EC50 in the series on SUDHL5 cells [1] (setting [4]) amounted to 560 nM; in the series with SUDHL10 cells (setting [5]), 1100 nM. For the same molecule, the IC50 in the series with SUDHL5 cells [2] was 760 nM; with SUDHL5 cells [3] it was 570 nM; with AMO-1 cells (setting [6]) it was 1350 nM; in the series with HMC-1-8 cells (setting [7]) it was 3120 nM.
Regarding `CCc1c2c(nn1C)C(CCN1CCOCC1)OCC(F)(F)CCn1c(C(=O)O)c(CCCOc3cccc4cc(F)ccc34)c3ccc(Cl)c-2c31` (single isomer, unassigned; (-)) [Example 91, (−)-4-chloro-3-ethyl-12,12-difluoro-7-{3-[(6-fluoronaphthalen-1-yl)oxy]propyl}-2-methyl-15-[2-(morpholin-4-yl)ethyl]-2,10,11,12,13,15-hexahydropyrazolo[4′,3′:9,10][1,6]oxazacycloundecino[8,7,6-hi]indole-8-carboxylic Acid], the EC50 with SUDHL5 cells [1] (setting [4]) turned out to be 660 nM; in the series with SUDHL10 cells (setting [5]) it was 890 nM. For the same molecule, the IC50 was 790 nM in the series on SUDHL5 cells [2], 1000 nM in the series with SUDHL5 cells [3], 729 nM in the series on AMO-1 cells (setting [6]) and 6100 nM in the series on HMC-1-8 cells (setting [7]).
Consider `CCc1c2c(nn1C)C(CCN1CCN(C)CC1)OCCCCn1c(C(=O)O)c(CCCOc3cccc4cc(F)ccc34)c3ccc(Cl)c-2c31` (single isomer, unassigned; stereoisomer 3) [Example 72, (−)-4-chloro-3-ethyl-7-{3-[(6-fluoronaphthalen-1-yl)oxy]propyl}-2-methyl-15-[2-(4-methylpiperazin-1-yl)ethyl]-2,10,11,12,13,15-hexahydropyrazolo[4′,3′:9,10][1,6]oxazacycloundecino[8,7,6-hi]indole-8-carboxylic Acid—N-ethylethanamine Salt (Stereoisomer 3)], for which the concentration giving a half-maximal response (EC50) came to 74 nM with SUDHL5 cells [1] (read-out: Caspase SUDHL5 EC50 (median); caspase-3/7 induction, 3 h) and 54 nM in the series on SUDHL10 cells (read-out: Caspase SUDHL10 EC50 (median); caspase-3/7 induction, 3 h). Further, the IC50 was determined as 96 nM with SUDHL5 cells [2]; 107 nM in the series on AMO-1 cells (read-out: Antiproli AMO-1 IC50 median; 72 h, CellTiter-Glo); 2290 nM in the series on HMC-1-8 cells (read-out: Antiproli HMC-1-8 IC50 median; 72 h, CellTiter-Glo).
For `CCc1c2c(nn1C)C(CCN1CCOCC1)OCC(F)(F)CCn1c(C(=O)O)c(CCCOc3cccc4cc(F)ccc34)c3ccc(Cl)c-2c31` (centres unmarked) [Example 89, 4-chloro-3-ethyl-12,12-difluoro-7-{3-[(6-fluoronaphthalen-1-yl)oxy]propyl}-2-methyl-15-[2-(morpholin-4-yl)ethyl]-2,10,11,12,13,15-hexahydropyrazolo[4′,3′:9,10][1,6]oxazacycloundecino[8,7,6-hi]indole-8-carboxylic Acid], the 50% effective concentration (EC50) in the series on SUDHL5 cells [1] (setting [4]) and with SUDHL10 cells (setting [5]) was 30 nM in each case. The half-inhibitory concentration (IC50) with SUDHL5 cells [3] worked out at 36 nM; in the series on AMO-1 cells (setting [6]), 29.5 nM; in the series on HMC-1-8 cells (setting [7]), 765 nM.
Consider `CCc1c2c(nn1C)C(CCN1CCOCC1)N(C)CCCCn1c(C(=O)O)c(CCCOc3cccc4cc(F)ccc34)c3ccc(Cl)c-2c31` (centres unmarked) [Example 97, 4-chloro-3-ethyl-7-{3-[(6-fluoronaphthalen-1-yl)oxy]propyl}-2,14-dimethyl-15-[2-(morpholin-4-yl)ethyl]-10,11,12,13,14,15-hexahydro-2H-pyrazolo[3′,4′:8,9][1,6]diazacycloundecino[10,11,1-hi]indole-8-carboxylic Acid—N-ethylethanamine Salt], for which the EC50 with SUDHL5 cells [1] (setting [4]) and in the series on SUDHL10 cells (setting [5]) was 11 nM in each case. For the same molecule, the results for the IC50 in the series on SUDHL5 cells [3], in the series with AMO-1 cells (setting [6]) and with HMC-1-8 cells (setting [7]) were 12 nM, 16.3 nM and 405 nM, respectively.

In general, EC50 refers to the midpoint of the concentration-response curve. Broadly, the IC50 is the concentration that inhibits the measured activity by half.
